{"source": "patent US20100130598A1", "about": "“METHODS FOR INDUCING PROGRAMMED CELL DEATH” (Novogen Research Pty Ltd., priority 2008, published 2010)", "key": {"EOC cells": {"test_system": "EOC cells", "assay": "Flow cytometry with Hoechst and Propidium iodide staining (DNA fragmentation)", "format": "cell-based, human", "settings": "Compound 1 10 g/ml (as printed, FIG. 1B legend), 24 h", "text": "Cell lines and culture conditions. Established human EOC cell lines, A2780 and A2780/CP70 (gifts from Dr. T C Hamilton) (Behrens et al, 1997) were propagated in RPMI plus 10% fetal bovine serum (Gemini Bio-Products, Woodland, Calif.). Primary EOC cell lines were isolated from malignant ovarian ascites or explanted from ovarian tumors and cultured as previously described (Alvero et al, 2006). Purity of the EOC cells was 100% as determined by immuno-staining for cytokeratin 7 antigen. All cell lines were grown at 37° C. in a 5% CO2 atmosphere.\nFlow cytometry with Hoechst and Propidium iodide staining. After treatment, cells were trypsinized, washed twice with PBS, and resuspended at 1×10^6 cells/ml. Cells were then stained with 5 μg/ml Hoechst 33342 (Invitrogen-Molecular Probes, Carlsbad, Calif.) and 1 μg/ml Propidium iodide (Sigma Aldrich) and incubated for 15 mins in the dark. Afterwards, data was acquired using BD LSR II System and analyzed using FloJo FACS analysis software (Tree Star, Inc., Ashland, Oreg.)."}, "XIAP": {"test_system": "XIAP", "assay": "Western blot of EOC whole cell lysates for XIAP", "format": "cell-based, human", "settings": "EOC cells, 10 g/ml (as printed, FIG. 2 legend)", "text": "Protein preparation and cellular fractionation. After drug treatment, protein was extracted and measured as previously described (Alvero et al, 2006). For separation of the cytoplasmic and mitochondrial fractions, cell pellets were processed using the ApoAlert™ Cell Fractionation Kit (BD Biosciences, San Jose, Calif.) according to the manufacturer's instructions. For separation of the cytoplasmic and nuclear fractions, pellets were processed using NE-PER Nuclear and Cytoplasmic Extraction (Pierce Biotechnology, Inc., Rockford, Ill.).\nSDS-PAGE and Western blots. Cell lysates (20 μg protein) were denatured in sample buffer (2.5% SDS, 10% glycerol, 5% β-mercapto-ethanol, 0.15 M Tris (pH=6.8) and 0.01% bromophenol blue) and subjected to 12% SDS-PAGE as previously described (Kamsteeg et al, 2003). […]"}, "EOC tumors": {"test_system": "EOC tumors", "assay": "Mouse EOC xenograft study", "format": "in vivo", "protocol": "Mouse xenograft studies. The in vivo study as approved by the Yale University Institutional Animal Care & Use Committee. Cells (1×10^6 cells) were resuspended in 200 μ1 total volume of 50% RPMI and 50% BD Matrigel Matrix (BD Biosciences, Bedford, Mass.) and injected subcutaneously into the right flank of NCR nude mice. Intra-peritoneal therapy commenced eight days post-inoculation as follows: Paclitaxel 10 mg/kg q×3d, Carboplatin 40 mg/kg q×7d, and Compound 1 in 20% HPBCD, 100 mg/kg every day. Control groups received 20% HPBCD in PBS. Mice were treated and observed for 3 weeks. Tumor size was determined by caliper measurements and anti-tumor activity was analyzed with respect to maximal tumor inhibition (treated/control, T/C) as described previously (Kamsteeg et al, 2003)."}, "MIAPaCa-2 cells": {"test_system": "MIAPaCa-2 cells", "assay": "Mitochondrial membrane potential by FACS (JC-1), MIAPaCa-2", "format": "cell-based, human", "settings": "MIAPaCa-2, dose-dependent, 48 hrs of treatment", "protocol": "(§1) Cells. Human pancreatic cell lines HPAC, MIAPaCa-2 and PANC-1 were obtained from the ATCC. (Manassas, Va.). The cells were maintained in DMEM media with Gln and high glucose (Mediatech, Manassas, Va.) with 10% fetal bovine serum (FBS, HyClone, Logan, Utah) and pencillin/streptomycin.\n(§2) FACS Analysis. Apoptosis was measured by FACS analysis using Annexin-V-FITC and propidium iodide (PI) (Biovision, Mountain View, Calif.) as probes (Ahn et al., 2003). Mitochondrial membrane potential was measured by FACS analysis using JC-1 (Biovision) as a probe (Ahn et al., 2003). Cell cycle was analyzed on ethanol-fixed, RNaseA-treated cells staining with PI. In each spectrum, 10,000 gated events were recorded and analyzed with a FACSCalibur (BD Biosciences. San Jose, Calif.). All experiments were done in triplicate, error bars represent one standard deviation. Caspase inhibitor I (zVAD-fmk) was obtained from Calbiochem."}, "HPAC cells": {"test_system": "HPAC cells", "assay": "Cell cycle analysis by FACS (PI), HPAC", "format": "cell-based, human", "settings": "10 μM, accompanied with an arrest in G0/G1, transient", "protocol": "as §1, §2"}, "MIAPaCa-2": {"test_system": "MIAPaCa-2", "assay": "MIAPaCa-2 pancreatic cancer xenograft", "format": "in vivo, Balb/c nude mice", "settings": "MIAPaCa-2 model", "protocol": "For xenograft studies, five week old male Balb/c nude mice were maintained on an isoflavone-free diet to remove background isoflavone levels contributed by standard feed. On the day of inoculation a suspension of MIAPaCa2 or HPAC cells was prepared in DMEM (-FBS), chilled on ice and then an equal volume of matrigel (BD) was added. Mice were inoculated subcutaneously with 3×10^6 MIAPaCa2 or HPAC cells bilaterally (midway between the axillary and inguinal region) along the dorsal surface, ensuring that cells to be injected were growing at mid-end log phase. Tumor growth was monitored over 10-15 days. Compound 10 was given orally by gavage in 1% carboxy methyl cellulose (CMC) as a vehicle. Gemcitabine was injected intraperiponeally in PBS. In combination groups animals were first dosed with Compound 10 and then dosed with gemcitabine using the respective administration schedule, dosage and route of delivery stated."}}, "data": [{"smiles": "COc1ccc(C2c3ccc(O)c(C)c3OCC2c2ccc(O)cc2)cc1", "note": "(stereo not drawn) [Compound 1, 3-(4-hydroxyphenyl)-4-(4-methoxyphenyl)-8-methylchroman-7-ol]", "values": [{"measurement": "cells staining positively for both Hoechst and PI (fragmented DNA)", "setting": "EOC cells", "result": 95, "unit": "%"}, {"measurement": "status of XIAP", "setting": "XIAP", "result": "no change"}, {"measurement": "tumor proliferation kinetics, final tumor size and volume", "setting": "EOC tumors; dose-dependent, compared to carboplatin and paclitaxel", "result": "significant decrease"}, {"measurement": "T/C values (maximal tumor inhibition, treated/control)", "setting": "EOC tumors; intra-peritoneal, 3 weeks, Compound 1 100 mg/kg every day, Carboplatin 40 mg/kg q×7d, Paclitaxel 10 mg/kg q×3d", "result": 30, "unit": "%"}, {"measurement": "toxic side effects", "setting": "EOC tumors; mouse, in vivo", "result": "No toxic side effects"}]}, {"smiles": "COc1ccc(C2c3ccc(O)cc3OCC2c2ccc(O)cc2)cc1", "note": "(stereo not drawn) [Compound 10, 3-(4-hydroxyphenyl)-4-(4-methoxyphenyl)chroman-7-ol]", "values": [{"measurement": "mitochondrial depolarization", "setting": "MIAPaCa-2 cells", "result": "depolarized"}, {"measurement": "G2/M arrest", "setting": "HPAC cells", "result": "less pronounced"}, {"measurement": "% T/C (mean terminal tumor burden)", "setting": "MIAPaCa-2; Compound 10 100 mg/kg oral qd×12, gemcitabine 20 mg/kg q3d×4, alone or combined", "result": 94, "unit": "%"}, {"measurement": "rate of tumor proliferation", "setting": "MIAPaCa-2; oral 100 mg/kg, qd×12, vs vehicle control, level similar to gemcitabine", "result": "retarded"}]}]}
